# From patent publication US20220273598A1, “METHOD FOR TREATING ALZHEIMER'S DISEASE BY INHIBITING UPTAKE OF AMINO ACIDS BY T CELLS” (SHANGHAI GREEN VALLEY PHARMACEUTICAL CO., LTD., priority 2019, published 2022)
# Entries after “also recorded” stand apart in the source; their conditions may differ.
# What was measured:
# SLC7A5 = target: T1, SLC7A5 (Mus musculus, UniProt Q9Z127); assay: Uptake of 13C-labelled phenylalanine by naive CD4+ T cells; assay type: cell-based; conditions: 0.5 h incubation
# T1 construct: endogenous in cells; host or cells: naive CD4+ T cells from splenocytes of C57BL/6 mice (Th0 / IL-12-induced Th1)
# T1 sequence (Q9Z127 whole entry): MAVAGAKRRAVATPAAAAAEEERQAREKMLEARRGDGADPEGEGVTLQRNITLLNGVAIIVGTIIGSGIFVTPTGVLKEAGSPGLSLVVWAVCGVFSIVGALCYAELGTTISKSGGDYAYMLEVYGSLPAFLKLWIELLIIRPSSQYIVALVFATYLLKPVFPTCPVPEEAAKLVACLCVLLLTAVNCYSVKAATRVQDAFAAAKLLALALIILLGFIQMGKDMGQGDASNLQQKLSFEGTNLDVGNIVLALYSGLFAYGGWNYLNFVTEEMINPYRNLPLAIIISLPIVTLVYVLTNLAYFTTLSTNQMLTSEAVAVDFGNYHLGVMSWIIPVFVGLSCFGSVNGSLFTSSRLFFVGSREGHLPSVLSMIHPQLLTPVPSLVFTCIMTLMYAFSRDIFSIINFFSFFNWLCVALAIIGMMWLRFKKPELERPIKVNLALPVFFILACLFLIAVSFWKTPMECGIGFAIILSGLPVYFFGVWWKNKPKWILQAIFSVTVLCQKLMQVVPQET
# T1 sequence (P10852 whole entry partner): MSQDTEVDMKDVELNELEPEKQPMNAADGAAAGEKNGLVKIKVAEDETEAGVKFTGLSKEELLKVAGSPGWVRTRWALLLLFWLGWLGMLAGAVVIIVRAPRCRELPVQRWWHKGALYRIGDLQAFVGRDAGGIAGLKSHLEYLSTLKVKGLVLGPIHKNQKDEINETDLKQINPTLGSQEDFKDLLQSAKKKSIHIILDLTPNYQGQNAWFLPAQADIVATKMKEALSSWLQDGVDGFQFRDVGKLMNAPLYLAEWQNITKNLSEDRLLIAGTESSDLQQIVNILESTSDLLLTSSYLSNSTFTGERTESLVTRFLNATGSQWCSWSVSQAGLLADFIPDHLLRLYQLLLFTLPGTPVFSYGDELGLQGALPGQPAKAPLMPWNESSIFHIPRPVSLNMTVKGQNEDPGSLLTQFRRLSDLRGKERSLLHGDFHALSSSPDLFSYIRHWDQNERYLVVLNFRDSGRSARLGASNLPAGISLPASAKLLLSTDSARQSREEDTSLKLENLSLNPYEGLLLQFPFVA
# Description: Uptake of phenylalanine. Naive CD4^+ T cells were separated from the splenocytes of 8-month-old C57BL/6 female mice using the Naive CD4^+ T cell Isolation Kit (Stem Cell, Cat No. 19765) and were induced to Th1 differentiation by 20 ng/mL IL-12. After 3 days, a total of 5×10^5 cells/well Th1 cells and Th0 cells in 0.5 mL of RPMI-1640 medium were plated into 48-well plates. ^13C-labelled phenylalanine and 5 mM amino transporter inhibitor BCH were added into indicated wells. After 0.5 h, cells were collected and washed twice with ice-cold D-PBS. 50 μL deionized water was added and cells were lysed through freezing and thawing twice at −80° C. The cell lysate was centrifuged at 12000×g for 10 min and ^13C-labelled phenylalanine in the supernatant was analyzed by Mass spectrometry.
# LAT1 = LAT1 (Homo sapiens, UniProt Q01650); conditions: supplier description; cited from earlier work
# Chain of LAT1 (Q01650 whole entry, species assumed): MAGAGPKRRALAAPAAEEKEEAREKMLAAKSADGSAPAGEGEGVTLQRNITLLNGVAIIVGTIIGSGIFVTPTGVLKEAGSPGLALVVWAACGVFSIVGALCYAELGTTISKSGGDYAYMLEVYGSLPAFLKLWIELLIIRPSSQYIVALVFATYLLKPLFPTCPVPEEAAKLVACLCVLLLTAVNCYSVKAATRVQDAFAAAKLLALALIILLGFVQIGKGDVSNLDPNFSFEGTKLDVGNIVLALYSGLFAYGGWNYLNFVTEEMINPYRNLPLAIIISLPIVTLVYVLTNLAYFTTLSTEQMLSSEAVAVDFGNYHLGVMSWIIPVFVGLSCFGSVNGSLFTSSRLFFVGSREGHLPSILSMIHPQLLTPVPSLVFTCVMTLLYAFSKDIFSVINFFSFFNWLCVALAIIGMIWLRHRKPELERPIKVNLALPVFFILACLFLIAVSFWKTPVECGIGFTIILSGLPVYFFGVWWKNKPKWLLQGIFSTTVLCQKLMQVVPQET
# Chain of LAT1 (P08195 102-630 partner, species assumed): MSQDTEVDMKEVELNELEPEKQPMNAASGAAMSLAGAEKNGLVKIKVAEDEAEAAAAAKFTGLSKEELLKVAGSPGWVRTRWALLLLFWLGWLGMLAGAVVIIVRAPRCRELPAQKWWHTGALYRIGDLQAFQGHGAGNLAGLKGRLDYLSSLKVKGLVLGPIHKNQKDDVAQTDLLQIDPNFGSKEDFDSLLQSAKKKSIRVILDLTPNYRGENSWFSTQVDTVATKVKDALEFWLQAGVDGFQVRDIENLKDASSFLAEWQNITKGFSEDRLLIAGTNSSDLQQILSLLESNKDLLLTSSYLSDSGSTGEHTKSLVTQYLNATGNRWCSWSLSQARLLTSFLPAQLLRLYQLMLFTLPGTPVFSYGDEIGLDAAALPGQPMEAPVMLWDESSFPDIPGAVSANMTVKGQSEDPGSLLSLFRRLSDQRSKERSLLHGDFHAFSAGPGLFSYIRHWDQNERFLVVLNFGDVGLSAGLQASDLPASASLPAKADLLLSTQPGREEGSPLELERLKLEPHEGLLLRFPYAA
# [1] = system: 5×FAD transgenic (Tg) mice; assay: Flow cytometry of Th1 cells and M1 microglia in brain homogenate; assay type: in vivo, mouse; conditions: 6-month-old 5×FAD mice, 50 mg/kg intraperitoneal every day for one month, versus vehicle
# Description: Animals. […] Mice were randomly assigned to different groups before treatment. […] The mouse brain was collected and stained for immune cell analysis and cytokine analysis. […] For OM1 treatment, at the age of 6.5 months, based on 450 mg b.i.d. (twice a day) in the phase III trial, Tg mice were treated with 100 mg/kg OM1 by oral administration once a day for one month. […] The brains and feces of the mice were then used for different analyses.
# Flow cytometry sample preparation and analysis. Mice were anesthetized, blood samples were collected into EDTA-containing tubes, and red blood cells were removed using 1×red blood lysis buffer. Before tissue collection, the brains were perfused with ice-cold PBS to avoid sampling the circulating blood immune cells, and the brains were removed, chopped into pieces and dissected according to the introduction of the Adult Brain Dissociation Kit (Miltenyi, Cat No. 130-107-677) using the gentleMACS dissociator (Miltenyi Biotec). The brain homogenate was filtered through a 70-μm cell strainer and centrifuged at 300×g for 5 min at 4° C. The cell pellet was resuspended in cold PBS buffer and centrifuged again at 300×g for 5 min at 4° C. All samples were counted and adjusted to a density of 2-3×10^6/100 μL, labeled with a Live/Dead kit for 30 min, and then centrifuged at 500×g for 3 min at 4° C. The cells were resuspended in 100 μL PBS buffer, blocked with anti-CD16/32 (Biolegend, Cat No. 101320) for 10 min, and incubated with the antibody according to the manufacturers' protocols at 4° C. for 30 min. […]
# C57 mice = assay: Intraperitoneal injection of phenylalanine and isoleucine, blood Th1 cells by FACS; assay type: in vivo, mouse; conditions: WT mice, intraperitoneal injection 50 mg/kg for 4 days
# Description: Animals. Tg mice and co-housed WT mice (corresponding WT mice generated by mating Tg mice and C57 mice) were housed in the same cage after birth. WT mice (C57) were housed in separate cages to avoid cross-transfer of microbiota. All mice were kept in a 23° C. room with a 12-hour (h) light-dark cycle. Mice were randomly assigned to different groups before treatment. For time course analysis of Tg mice, male and female Tg mice were sacrificed at 2, 3, 5, 7 and 9 months of age. The mouse brain was collected and stained for immune cell analysis and cytokine analysis. Before the mice were sacrificed, feces were collected for gut microbiota analysis. For OM1 treatment, at the age of 6.5 months, based on 450 mg b.i.d. (twice a day) in the phase III trial, Tg mice were treated with 100 mg/kg OM1 by oral administration once a day for one month. Behavioral tests were performed to monitor cognitive activity after the last treatment. […] All mouse movements that occur in PhenoTyper (HomeCage) are recorded by a computerized tracking system, which calculates the time and number of entrances required to reach 80% of the performance standard (Noldus, Ethovision). […]
# Flow cytometry sample preparation and analysis. […] All samples were counted and adjusted to a density of 2-3×10^6/100 μL, labeled with a Live/Dead kit for 30 min, and then centrifuged at 500×g for 3 min at 4° C. […]
# naive CD4+ T cells = assay: In vitro differentiation and proliferation induced by phenylalanine and isoleucine; assay type: cell-based, mouse; conditions: amino acid added directly to naive CD4+ T cell culture; for Th1 cell proliferation: CellTrace
# Description: In Vitro differentiation and proliferation induced by phenylalanine and isoleucine. Naive CD4^+ T cells were separated from the splenocytes of 8-month-old C57BL/6 female mice using the Naive CD4^+ T cell Isolation Kit (Stem Cell, #19765), and the cells were stained with CellTrace (Thermo Fisher, #C34557). A total of 1×10^5 cells/well in 0.2 mL of RPMI-1640 medium were plated in 96-well plates, and the culture medium was supplemented with cytokines or blocking antibodies. Th0: 10 ng/mL mIL-2; Th1:10 ng/mL mIL-2, 5000 ng/mL 11B11. Phenylalanine (final concentration, 2 mmol/L), isoleucine (final concentration, 2 mmol/L) and OM1 (final concentration, 100 μg/mL) were added into the indicated wells, respectively. After incubation at 37° C. in 5% CO2 for 5 days, cells were acquired on a BD Fortessa cytometer, and data were analyzed using FlowJo software.
SMILES,uptake of 13C-labelled phenylalanine by CD4+ T cells (SLC7A5),LAT1 selectivity (LAT1),proportion of pro-inflammatory Th1 cells in the mouse brain ([1]; 50 mg/kg),"proportion of pro-inflammatory Th1 cells in the mouse brain ([1]; listed as JPH203, 50 mg/kg)",Th1 cell count in the blood (C57 mice),Th0 cell differentiation into Th1 cells (naive CD4+ T cells),Th1 cell proliferation (naive CD4+ T cells)
Nc1cc(COc2c(Cl)cc(C[C@H](N)C(=O)O)cc2Cl)c2oc(-c3ccccc3)nc2c1 [JPH 203],blocked,selectively inhibits LAT1,significantly reduces the proportion of Th1 cells in the mouse brain,effectively inhibits the proportion of Th1 cells in the brain; also recorded: significantly downregulated the proportion of pro-inflammatory Th1 cells in the mouse brain,,,
N[C@@H](Cc1ccccc1)C(=O)O [phenylalanine],,,,,increased significantly,increased,increased
CC[C@H](C)[C@H](N)C(=O)O [isoleucine],,,,,increased significantly,increased,increased
